{"source": "paper PMC8536978", "about": "(Viruses, 2021)", "key": {"TAR RNA": {"test_system": "TAR RNA", "set-up": "method as in earlier work", "settings": "cited from earlier work"}, "HIV-1 LTR + Tat": {"test_system": "HIV-1 LTR + Tat", "type": "cell-based", "settings": "Human immunodeficiency virus 1, HEK-293T, 24 h, read-out: HIV-1 LTR + Tat (Tat-induced transcription) IC50"}, "[1]": {"molecular_target": "Tat–cyclin T1 interaction (UniProt O60563+P04608)", "sequence (P04608 whole entry)": "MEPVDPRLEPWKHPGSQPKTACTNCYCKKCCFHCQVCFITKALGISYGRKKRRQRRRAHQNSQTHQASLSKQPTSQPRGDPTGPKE", "sequence (O60563 whole entry)": "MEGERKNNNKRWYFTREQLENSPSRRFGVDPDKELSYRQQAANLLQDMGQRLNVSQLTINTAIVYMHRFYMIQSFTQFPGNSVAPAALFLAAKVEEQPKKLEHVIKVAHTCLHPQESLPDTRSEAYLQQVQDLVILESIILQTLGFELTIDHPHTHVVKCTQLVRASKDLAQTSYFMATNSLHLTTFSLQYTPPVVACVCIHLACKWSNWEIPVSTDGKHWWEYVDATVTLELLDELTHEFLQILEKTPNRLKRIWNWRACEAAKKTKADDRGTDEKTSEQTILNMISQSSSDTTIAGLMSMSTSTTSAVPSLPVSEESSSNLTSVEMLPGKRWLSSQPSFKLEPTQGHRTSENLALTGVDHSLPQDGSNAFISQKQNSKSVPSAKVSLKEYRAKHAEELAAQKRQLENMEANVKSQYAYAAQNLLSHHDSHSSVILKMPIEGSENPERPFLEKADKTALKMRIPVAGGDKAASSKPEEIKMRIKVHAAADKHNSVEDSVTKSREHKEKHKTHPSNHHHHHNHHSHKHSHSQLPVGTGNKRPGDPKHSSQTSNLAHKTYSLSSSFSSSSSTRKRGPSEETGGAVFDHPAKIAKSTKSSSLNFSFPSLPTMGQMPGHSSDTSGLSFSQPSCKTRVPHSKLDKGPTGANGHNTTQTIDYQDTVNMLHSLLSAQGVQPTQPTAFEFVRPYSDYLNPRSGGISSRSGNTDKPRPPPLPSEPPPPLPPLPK", "test": "Co-immunoprecipitation of cyclin T1 with Flag-Tat from 293T cells", "type": "cell-based", "settings": "24 h; for reduction of cyclin T1 associated with Tat: 20 μM"}, "Tat–TAR RNA interaction": {"test_system": "Tat–TAR RNA interaction", "test": "Tat–TAR RNA interaction pull-down assay", "type": "binding, HIV-1", "settings": "10 µM compound, Flag-Tat lysate, biotinylated TAR RNA on beads"}, "HIV-1 IIIB [2]": {"test_system": "HIV-1 IIIB", "test": "HIV-1 IIIB replication in CEM T cells (p24 ELISA, gag mRNA RT-PCR)", "type": "cell-based", "settings": "CEM T cells infected with HIV-1 IIIB; for reduction in p24 levels: p24 ELISA; for reduction of HIV-1 gag mRNA: real-time RT-PCR"}, "[3]": {"test_system": "HIV-1-LUC-G (VSVG pseudotyped HIV-1 expressing luciferase)", "test": "microbe, parasite or virus in culture", "type": "cell-based", "settings": "for pIC50: read-out: One round HIV-1 infection IC50"}, "luciferase translation": {"test_system": "luciferase translation", "test": "In vitro translation of luciferase RNA in rabbit reticulocyte lysate", "type": "biochemical", "settings": "30 μM, 90 min"}, "Tat–CDK9 interaction": {"molecular_target": "Tat–CDK9 interaction (UniProt P04608+P50750)", "sequence (P04608 whole entry)": "as the sequence (P04608 whole entry) above", "sequence (P50750 whole entry)": "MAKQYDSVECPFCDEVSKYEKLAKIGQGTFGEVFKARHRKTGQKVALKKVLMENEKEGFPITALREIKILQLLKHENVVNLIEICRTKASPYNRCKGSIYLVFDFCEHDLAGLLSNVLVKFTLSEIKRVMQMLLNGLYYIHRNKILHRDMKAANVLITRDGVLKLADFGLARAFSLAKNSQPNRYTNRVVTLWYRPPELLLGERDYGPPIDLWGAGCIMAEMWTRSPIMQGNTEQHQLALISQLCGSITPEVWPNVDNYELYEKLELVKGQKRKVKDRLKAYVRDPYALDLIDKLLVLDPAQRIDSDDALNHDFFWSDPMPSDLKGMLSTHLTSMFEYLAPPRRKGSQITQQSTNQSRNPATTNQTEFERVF", "test": "Co-immunoprecipitation of CDK9 with Flag-Tat from 293T cells", "type": "cell-based", "settings": "20 μM, 24 h"}, "HIV-1 IIIB [4]": {"test_system": "HIV-1 IIIB", "test": "HIV-1 IIIB replication in PBMCs (p24 ELISA, gag and nef mRNA RT-PCR)", "type": "cell-based", "settings": "for reduction in p24 / reduction in HIV-1 nef mRNA / reduction in gag mRNA: PBMCs infected with HIV-1 IIIB; for reduction in p24: p24 ELISA; for reduction in HIV-1 nef mRNA / reduction in gag mRNA: real-time RT-PCR"}, "[5]": {"test": "MTT cell proliferation/viability assay", "type": "cell-based", "settings": "human, CEM T cells, 1-100 μM"}, "[6]": {"test_system": "HIV-1 reverse transcription", "test": "HIV-1 reverse transcription, early and late LTR DNA products by real-time PCR", "type": "cell-based", "settings": "HIV-1 DNA 6 h post infection"}, "PBMCs": {"test_system": "PBMCs", "test": "Trypan blue exclusion viability of HIV-1 IIIB infected PBMCs", "type": "cell-based"}, "HIV-1 LTR": {"test_system": "HIV-1 LTR", "test": "Basal HIV-1 transcription, HIV-1 LTR-luciferase reporter in 293T cells", "type": "cell-based", "settings": "HIV-1 LTR-luciferase reporter alone, 24 h treatment"}, "[7]": {"settings": "Human immunodeficiency virus 1, T-cell"}}, "note": "pIC50: −log10 of the molar value. Where two headings read alike, the source gives them in different places.", "data": [{"smiles": "CC(=O)c1ccc2c(c1)N(CCCN(C)C)c1ccccc1S2", "note": "[acetylpromazine]", "values": [{"measurement": "affinity of binding to TAR RNA", "setting": "TAR RNA", "value": "high affinity (nanomolar)"}]}, {"smiles": "Nc1ccc2oc(-c3cc(F)c(F)cc3Cl)nc2c1", "note": "[T0516-4834]", "values": [{"measurement": "pIC50", "setting": "HIV-1 LTR + Tat", "value": 5.70}, {"measurement": "inhibition at 20 µM", "setting": "[1]; HEK-293T, read-out: reduction of cyclin T1 associated with Tat", "value": "< 20", "unit": "%"}, {"measurement": "inhibition of Tat binding to TAR RNA", "setting": "Tat–TAR RNA interaction", "value": 2.5, "unit": "fold"}, {"measurement": "reduction in p24 levels", "setting": "HIV-1 IIIB [2]", "value": 4, "unit": "fold"}, {"measurement": "reduction of HIV-1 gag mRNA", "setting": "HIV-1 IIIB [2]", "value": 27, "unit": "fold"}, {"measurement": "Luciferase (%, relative to DMSO control)", "setting": "[3]", "value": 37.74, "unit": "%"}, {"measurement": "pIC50", "setting": "[3]; [7]", "value": 6.70}, {"measurement": "pIC50", "setting": "[3]", "value": 6.52}, {"measurement": "reduction in luciferase translation", "setting": "luciferase translation", "value": "~ 30%"}, {"measurement": "reduction in CDK9 associated with Tat", "setting": "Tat–CDK9 interaction", "value": 1.4, "unit": "fold"}, {"measurement": "HIV-1 inhibition", "setting": "HIV-1 IIIB [4]; HIV-1 IIIB infected PBMCs, 10 µM", "value": "~ 10 fold"}, {"measurement": "reduction in p24", "setting": "HIV-1 IIIB [4]", "value": 4, "unit": "fold"}, {"measurement": "reduction in HIV-1 nef mRNA", "setting": "HIV-1 IIIB [4]", "value": 10, "unit": "fold"}, {"measurement": "reduction in gag mRNA", "setting": "HIV-1 IIIB [4]", "value": 2.5, "unit": "fold"}, {"measurement": "EC50 at 24 h", "setting": "[5]", "value": "> 100", "unit": "µM"}]}, {"smiles": "Cc1cn([C@H]2C[C@H](N=[N+]=[N-])[C@@H](CO)O2)c(=O)[nH]c1=O", "note": "[AZT, azidothymidine]", "values": [{"measurement": "reduction of HIV-1 early LTR products", "setting": "[6]", "value": 1.8, "unit": "fold"}, {"measurement": "reduction of HIV-1 late LTR products", "setting": "[6]", "value": 63, "unit": "fold"}, {"measurement": "reduction in gag mRNA", "setting": "HIV-1 IIIB [4]", "value": "strongly inhibited HIV-1"}, {"measurement": "reduction of PBMCs viability", "setting": "PBMCs; human, 48 h", "value": 29, "unit": "%"}]}, {"smiles": "O=C1OCCC1Sc1nnc(-c2sc3ccccc3c2Cl)o1", "note": "(centres unmarked) [T5628834]", "values": [{"measurement": "pIC50", "setting": "HIV-1 LTR + Tat", "value": 4.70}, {"measurement": "reduction of cyclin T1 associated with Tat", "setting": "[1]", "value": 1.6, "unit": "fold"}, {"measurement": "reduction in p24 levels", "setting": "HIV-1 IIIB [2]", "value": 1.26, "unit": "fold"}, {"measurement": "reduction of HIV-1 gag mRNA", "setting": "HIV-1 IIIB [2]", "value": 1.6, "unit": "fold"}, {"measurement": "Luciferase (%, relative to DMSO control)", "setting": "[3]", "value": 28.71, "unit": "%"}, {"measurement": "pIC50", "setting": "[3]; [7]", "value": 5.46}, {"measurement": "pIC50", "setting": "[3]", "value": 5.43}, {"measurement": "reduction in CDK9 associated with Tat", "setting": "Tat–CDK9 interaction", "value": 4, "unit": "fold"}, {"measurement": "reduction in p24", "setting": "HIV-1 IIIB [4]", "value": 3.2, "unit": "fold"}, {"measurement": "reduction in HIV-1 nef mRNA", "setting": "HIV-1 IIIB [4]", "value": "no effect"}, {"measurement": "EC50 at 24 h", "setting": "[5]", "value": "> 100", "unit": "µM"}]}, {"smiles": "Cc1nnc(C(=O)NC(C)(C)c2nc(C(=O)NCc3ccc(F)cc3)c(O)c(=O)n2C)o1", "note": "[raltegravir, reference compound]", "values": [{"measurement": "reduction in gag mRNA", "setting": "HIV-1 IIIB [4]", "value": "strongly inhibited HIV-1"}, {"measurement": "reduction of PBMCs viability", "setting": "PBMCs; HIV-1 IIIB infected PBMCs, trypan blue exclusion", "value": 18, "unit": "%"}]}, {"smiles": "O=C(O)COc1ccc(/C=C/C(=O)c2ccc3c(c2)OCO3)cc1", "note": "[T6780107]", "values": [{"measurement": "pIC50", "setting": "HIV-1 LTR + Tat", "value": 5.46}, {"measurement": "reduction of cyclin T1 associated with Tat", "setting": "[1]", "value": "no significant effect"}, {"measurement": "reduction in p24 levels", "setting": "HIV-1 IIIB [2]", "value": 2.2, "unit": "fold"}, {"measurement": "reduction of HIV-1 gag mRNA", "setting": "HIV-1 IIIB [2]", "value": 5.5, "unit": "fold"}, {"measurement": "Luciferase (%, relative to DMSO control)", "setting": "[3]", "value": 18.24, "unit": "%"}, {"measurement": "pIC50", "setting": "[3]; [7]", "value": 5.53}, {"measurement": "pIC50", "setting": "[3]", "value": 5.43}, {"measurement": "reduction in CDK9 associated with Tat", "setting": "Tat–CDK9 interaction", "value": "no effect"}, {"measurement": "reduction in p24", "setting": "HIV-1 IIIB [4]", "value": "No significant effect"}, {"measurement": "reduction in HIV-1 nef mRNA", "setting": "HIV-1 IIIB [4]", "value": "no effect"}, {"measurement": "reduction in gag mRNA", "setting": "HIV-1 IIIB [4]", "value": "No significant effect"}, {"measurement": "pIC50", "setting": "HIV-1 LTR", "value": 5.33}, {"measurement": "EC50 at 24 h", "setting": "[5]", "value": "> 100", "unit": "µM"}]}, {"smiles": "C[C@@H]1C[C@@H]([C@H](O)CC2CC(=O)NC(=O)C2)C(=O)[C@@H](C)C1", "note": "[cycloheximide, reference compound]", "values": [{"measurement": "reduction in luciferase translation", "setting": "luciferase translation", "value": "completely blocked translation"}]}]}
